# Reference: US20250319078A1, “METHOD FOR SYNERGISTIC ENHANCEMENT OF REMYELINATION VIA MODULATION OF RXR AND A HETERODIMERIC PARTNER” (THE SCRIPPS RESEARCH INSTITUTE, priority 2022, published 2025)
# Assays:
# [1] = system: rat optic nerve derived OPCs; assay: cell-based OPC differentiation assay quantifying % MBP-positive OLs by immunofluorescence after 6 days of treatment; settings: for effect on % T3-induced MBP+OLs in combination with bexarotene (phenocopy of tasin-1, tamoxifen, LXR antagonist): heat maps, average n=3; for activity in enhancing OPC differentiation alone: single agent, without RXR activation
# Description: Combination-based screening and evaluation of LXR modulators. Pairwise screening of bexarotene and partner compounds was done in matrices of 9-12 doses for each and transferred onto 3 separate 384-well plates. […] Heat maps were generated using Prism to highlight impact of the combinations relative to baseline controls.
# We evaluated various reported inhibitors of CYP51, TM7SF2 and EBP for their ability to enhance bexarotene-induced remyelination. We quantified activity based on immunofluorescence analysis of % MBP+OLs after 6 days of compound treatment, with vehicle/DMSO, clemastine and triiodothyronine (T3) controls on each plate using rat optic nerve derived OPCs.
# [2] = dose of bexarotene used in the CCMR One trial; read-out: predicted Cmax; cited from earlier work
# LXR = assay: confocal imaging and line profile analysis of LXR localization in OPCs/oligodendrocytes; type: cell-based; settings: 6 days of treatment; immunofluorescence, confocal imaging
# Experimental: Confocal imaging and analysis of LXR expression. […] OPCs were then seeded at a density of 1,000 cells per well, and the plates were incubated at 37° C. with 5% CO2 for 6 d. On day 6, cells were then fixed for 20 min with 4% formaldehyde solution and stained with anti-LXRalpha/beta antibody (cat. #sc-271064, Santa Cruz Biotechnology) in 3% BSA, 0.3% Triton X-100 with overnight incubation at 4° C. The cells were washed and incubated with secondary antibody (Alexa Fluor 488 goat anti-mouse IgG, Life Technologies) and Hoechst 33342 (Invitrogen) for 1 h at room temperature. The cells were washed and plates were sealed and imaged using a Cellomics Cell Insight imaging reader (Thermo). Randomly-selected fields from 6 wells selected at random were imaged at 50× magnification using a Zeiss 780 confocal microscope. 10 cells within images from each treatment group were randomly selected for line profile analysis.
# A line profile analysis of fluorescent intensities was performed by drawing an 18.5 μm line through the center of individual cells (n=10), from approximately 2-4 microns beyond the nuclear membrane on each side using the Fiji image processing platform. Fluorescence intensities over distance (μm) was graphed using Prism 9 software (GraphPad).
# [3] = 20 mg daily dose of tamoxifen; cited from earlier work
Structure (SMILES),"effect on % T3-induced MBP+OLs in combination with bexarotene (phenocopy of tasin-1, tamoxifen, LXR antagonist) [1]",activity in enhancing OPC differentiation alone [1],localization of LXR following treatment (LXR),other results
"CC(C)=CCC[C@@H](C)[C@H]1CC=C2C3=C(CC[C@@]21C)[C@@]1(C)CC[C@H](O)C(C)(C)[C@@H]1CC3 [FF-MAS, Follicular fluid meiosis-activating sterol]","combines with bexarotene (RXRg agonist) to phenocopy tasin-1, tamoxifen, or an LXR antagonist",,,
Cc1cc(C)c(S(=O)(=O)N(CCc2cccc(Br)c2)Cc2ccc(-c3cccc(S(C)(=O)=O)c3)cc2)c(C)c1 [SR9243],"phenocopies GSK2033, FFMAS, tasin-1 and tamoxifen",,,
CC(C)=CCC[C@@H](C)[C@H]1CC[C@H]2C3=C(CC[C@]12C)[C@@]1(C)CC[C@H](O)C[C@@H]1CC3 [Zymosterol],"phenocopies tasin-1, tamoxifen and LXR agonists",,,
C=C(c1ccc(C(=O)O)cc1)c1cc2c(cc1C)C(C)(C)CCC2(C)C [bexarotene],,,,cell-based OPC differentiation ECmax of bexarotene (concentration required to achieve optimal activity) ([1]; bexarotene combined with tamoxifen): ~150 nM; Cmax [2]: 2600 nM
CC/C(=C(\c1ccccc1)c1ccc(OCCN(C)C)cc1)c1ccccc1 [tamoxifen],,minimally active,significant shift in localization of LXR,steady state plasma concentration [3]: 834 nM
COc1ccc(S(=O)(=O)N2CCC(N3CCC(C)CC3)CC2)cc1 [tasin-1],,minimally active,significant shift in localization of LXR,
